Laboratory results as given in PubChem BioAssay (NCI).
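All cell lines were grown in 96-well plates and treated with compound for 48 hours. TGI denotes the concentration required for complete inhibition of growth.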

Key:
Assay in all cases: inhibition of tumour cell growth, NCI panel, 48 h
NCI-H460 lung = system: NCI-H460 lung
NCI-H226 lung = system: NCI-H226 lung
SK-MEL-28 melanoma = system: SK-MEL-28 melanoma
SF-268 CNS = system: SF-268 CNS
UO-31 renal = system: UO-31 renal
SK-MEL-2 melanoma = system: SK-MEL-2 melanoma
ACHN renal = system: ACHN renal
786-0 renal = system: 786-0 renal
SR leukemia = system: SR leukemia
SW-620 colon = system: SW-620 colon
A549 NSCLC = system: A549 NSCLC
SNB-19 CNS = system: SNB-19 CNS
NCI-H522 lung = system: NCI-H522 lung
SN12C renal = system: SN12C renal
RPMI-8226 leukemia = system: RPMI-8226 leukemia
SK-MEL-5 melanoma = system: SK-MEL-5 melanoma
EKVX NSCLC = system: EKVX NSCLC
SNB-75 CNS = system: SNB-75 CNS
MDA-MB-231 breast = system: MDA-MB-231 breast
HS 578T breast = system: HS 578T breast
MDA-MB-435 = system: MDA-MB-435
OVCAR-5 ovarian = system: OVCAR-5 ovarian
UACC-62 melanoma = system: UACC-62 melanoma
CAKI-1 renal = system: CAKI-1 renal
HOP-62 NSCLC = system: HOP-62 NSCLC
U251 CNS = system: U251 CNS
HOP-92 NSCLC = system: HOP-92 NSCLC
HCT-15 colon = system: HCT-15 colon
SF-295 CNS = system: SF-295 CNS
SK-OV-3 ovarian = system: SK-OV-3 ovarian
OVCAR-8 ovarian = system: OVCAR-8 ovarian
MDA-N = system: MDA-N
IGROV1 ovarian = system: IGROV1 ovarian
MALME-3M melanoma = system: MALME-3M melanoma
NCI/ADR-RES ovarian = system: NCI/ADR-RES ovarian
A498 renal = system: A498 renal
M14 melanoma = system: M14 melanoma
MOLT-4 leukemia = system: MOLT-4 leukemia
NCI-H23 lung = system: NCI-H23 lung
BT-549 breast = system: BT-549 breast
COLO 205 colon = system: COLO 205 colon
HT29 colon = system: HT29 colon
TK-10 renal = system: TK-10 renal
RXF 393 renal = system: RXF 393 renal
HL-60(TB) leukemia = system: HL-60(TB) leukemia
SF-539 CNS = system: SF-539 CNS
K-562 leukemia = system: K-562 leukemia
HCT-116 colon = system: HCT-116 colon
T-47D breast = system: T-47D breast
OVCAR-4 ovarian = system: OVCAR-4 ovarian
LOX IMVI melanoma = system: LOX IMVI melanoma
HCC-2998 colon = system: HCC-2998 colon
KM12 colon = system: KM12 colon
UACC-257 melanoma = system: UACC-257 melanoma
MCF7 breast = system: MCF7 breast
CCRF-CEM leukemia = system: CCRF-CEM leukemia
PC-3 prostate = system: PC-3 prostate
DU-145 prostate = system: DU-145 prostate
OVCAR-3 ovarian = system: OVCAR-3 ovarian

c1csc(-c2ccc(-c3ccsc3)s2)c1
TGI (NCI-H460 lung): > 100 µM
TGI (NCI-H226 lung): > 100 µM
TGI (SK-MEL-28 melanoma): > 100 µM
TGI (SF-268 CNS): > 100 µM
TGI (UO-31 renal): > 100 µM
TGI (SK-MEL-2 melanoma): > 100 µM
TGI (ACHN renal): > 100 µM
TGI (786-0 renal): > 100 µM
TGI (SR leukemia): > 100 µM
TGI (SW-620 colon): > 100 µM
TGI (A549 NSCLC): > 100 µM
TGI (SNB-19 CNS): > 100 µM
TGI (NCI-H522 lung): > 100 µM
TGI (SN12C renal): > 100 µM
TGI (RPMI-8226 leukemia): > 100 µM
TGI (SK-MEL-5 melanoma): > 100 µM
TGI (EKVX NSCLC): > 100 µM
TGI (SNB-75 CNS): > 100 µM
TGI (MDA-MB-231 breast): > 100 µM
TGI (HS 578T breast): > 100 µM
TGI (MDA-MB-435): > 100 µM
TGI (OVCAR-5 ovarian): > 100 µM
TGI (UACC-62 melanoma): > 100 µM
TGI (CAKI-1 renal): > 100 µM
TGI (HOP-62 NSCLC): > 100 µM
TGI (U251 CNS): > 100 µM
TGI (HOP-92 NSCLC): > 100 µM
TGI (HCT-15 colon): > 100 µM
TGI (SF-295 CNS): > 100 µM
TGI (SK-OV-3 ovarian): > 100 µM
TGI (OVCAR-8 ovarian): > 100 µM
TGI (MDA-N): > 100 µM
TGI (IGROV1 ovarian): > 100 µM
TGI (MALME-3M melanoma): > 100 µM
TGI (NCI/ADR-RES ovarian): > 100 µM
TGI (A498 renal): > 100 µM
TGI (M14 melanoma): > 100 µM
TGI (MOLT-4 leukemia): > 100 µM
TGI (NCI-H23 lung): > 100 µM
TGI (BT-549 breast): > 100 µM
TGI (COLO 205 colon): > 100 µM
TGI (HT29 colon): > 100 µM
TGI (TK-10 renal): > 100 µM
TGI (RXF 393 renal): > 100 µM
TGI (HL-60(TB) leukemia): > 100 µM
TGI (SF-539 CNS): > 100 µM
TGI (K-562 leukemia): > 100 µM
TGI (HCT-116 colon): > 100 µM
TGI (T-47D breast): > 100 µM
TGI (OVCAR-4 ovarian): > 100 µM
TGI (LOX IMVI melanoma): > 100 µM
TGI (HCC-2998 colon): > 100 µM
TGI (KM12 colon): > 100 µM
TGI (UACC-257 melanoma): > 100 µM
TGI (MCF7 breast): > 100 µM
TGI (CCRF-CEM leukemia): > 100 µM
TGI (PC-3 prostate): > 100 µM

COc1ccc(/C=C/c2ccnc3ccccc23)cc1
TGI (NCI-H460 lung): 47.7 µM
TGI (NCI-H226 lung): 38.2 µM
TGI (SK-MEL-28 melanoma): 29.4 µM
TGI (SF-268 CNS): 30.4 µM
TGI (UO-31 renal): 0.0937 µM
TGI (SK-MEL-2 melanoma): 38.4 µM
TGI (ACHN renal): 27 µM
TGI (786-0 renal): 30.6 µM
TGI (SR leukemia): 61.1 µM
TGI (SW-620 colon): 36.3 µM
TGI (A549 NSCLC): 30.8 µM
TGI (SNB-19 CNS): 36.8 µM
TGI (NCI-H522 lung): 36.6 µM
TGI (SN12C renal): 32.7 µM
TGI (RPMI-8226 leukemia): 45 µM
TGI (SK-MEL-5 melanoma): 27.5 µM
TGI (DU-145 prostate): 28 µM
TGI (EKVX NSCLC): 25.8 µM
TGI (HS 578T breast): 48.8 µM
TGI (MDA-MB-435): 31.2 µM
TGI (OVCAR-5 ovarian): 36.5 µM
TGI (OVCAR-3 ovarian): 26.3 µM
TGI (UACC-62 melanoma): 29.2 µM
TGI (CAKI-1 renal): 31.6 µM
TGI (HOP-62 NSCLC): 35.9 µM
TGI (U251 CNS): 31.9 µM
TGI (HOP-92 NSCLC): 16.5 µM
TGI (HCT-15 colon): 39.6 µM
TGI (SF-295 CNS): 32.7 µM
TGI (SK-OV-3 ovarian): 33.5 µM
TGI (MDA-N): 31.6 µM
TGI (IGROV1 ovarian): 32.5 µM
TGI (MALME-3M melanoma): 30.6 µM
TGI (NCI/ADR-RES ovarian): 33.6 µM
TGI (A498 renal): 27.9 µM
TGI (M14 melanoma): 31.7 µM
TGI (MOLT-4 leukemia): 34 µM
TGI (NCI-H23 lung): 30.6 µM
TGI (COLO 205 colon): 31.1 µM
TGI (HT29 colon): 23.1 µM
TGI (TK-10 renal): 31.7 µM
TGI (RXF 393 renal): 35.4 µM
TGI (HL-60(TB) leukemia): 20.1 µM
TGI (SF-539 CNS): 37.6 µM
TGI (K-562 leukemia): 23.2 µM
TGI (HCT-116 colon): 29.1 µM
TGI (T-47D breast): 37.4 µM
TGI (OVCAR-4 ovarian): 19.9 µM
TGI (LOX IMVI melanoma): 31 µM
TGI (HCC-2998 colon): 36.6 µM
TGI (KM12 colon): 30.1 µM
TGI (UACC-257 melanoma): 31.4 µM
TGI (MCF7 breast): 31.4 µM
TGI (CCRF-CEM leukemia): 28.7 µM
TGI (PC-3 prostate): 39.7 µM
